One experiment has as its target human TLR7 (Homo sapiens (Human), UniProt Q9NYK1). Nature of the experiment: TLR7 inhibition reporter assay (HEK-Blue SEAP). It counts as cell-based. The note with it: HEK-Blue cells overexpressing human TLR7, gardiquimod 7.5 μM stimulation.
The target in the next experiment is human TLR8 (Homo sapiens (Human), UniProt Q9NR97). Nature of the experiment: TLR8 inhibition reporter assay (HEK-Blue SEAP).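 Further: SEAP driven by IFN-β minimal promoter with five NF-κB and AP-1 sites, compounds tested 0.05 nM to 50 µM, 22 h incubation, inhibition relative to agonist plus DMSO wells.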
Another experiment deals with human TLR9 (Homo sapiens (Human), UniProt Q9NR96). The experiment in a line: TLR9 inhibition reporter assay (HEK-Blue SEAP).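 Further: SEAP driven by IFN-β minimal promoter carrying five NF-κB and AP-1 sites, 22 h at 37 °C, compounds 0.05 nM–50 µM, inhibition scaled between agonist-plus-DMSO and reference-inhibitor wells.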
The mark [1] stands for this setting: read-out: TLR8 IC50; HEK-Blue cells overexpressing human TLR8; R848 15.9 μM stimulation; SEAP reporter.
Setting [2] is: read-out: TLR9 IC50; HEK-Blue cells overexpressing human TLR9; ODN2006 5 nM stimulation; SEAP reporter.
[3] abbreviates: read-out: TLR8 IC50; HEK-Blue cells overexpressing human TLR8, R848 15.9 μM stimulation, SEAP reporter.
Where [4] appears, read: read-out: TLR9 IC50; HEK-Blue cells overexpressing human TLR9, ODN2006 5 nM stimulation, SEAP reporter.

pIC50: −log10 of the molar value. Where two headings read alike, the source gives them in different places.

human TLR8, sequence (Q9NR97 27-1041): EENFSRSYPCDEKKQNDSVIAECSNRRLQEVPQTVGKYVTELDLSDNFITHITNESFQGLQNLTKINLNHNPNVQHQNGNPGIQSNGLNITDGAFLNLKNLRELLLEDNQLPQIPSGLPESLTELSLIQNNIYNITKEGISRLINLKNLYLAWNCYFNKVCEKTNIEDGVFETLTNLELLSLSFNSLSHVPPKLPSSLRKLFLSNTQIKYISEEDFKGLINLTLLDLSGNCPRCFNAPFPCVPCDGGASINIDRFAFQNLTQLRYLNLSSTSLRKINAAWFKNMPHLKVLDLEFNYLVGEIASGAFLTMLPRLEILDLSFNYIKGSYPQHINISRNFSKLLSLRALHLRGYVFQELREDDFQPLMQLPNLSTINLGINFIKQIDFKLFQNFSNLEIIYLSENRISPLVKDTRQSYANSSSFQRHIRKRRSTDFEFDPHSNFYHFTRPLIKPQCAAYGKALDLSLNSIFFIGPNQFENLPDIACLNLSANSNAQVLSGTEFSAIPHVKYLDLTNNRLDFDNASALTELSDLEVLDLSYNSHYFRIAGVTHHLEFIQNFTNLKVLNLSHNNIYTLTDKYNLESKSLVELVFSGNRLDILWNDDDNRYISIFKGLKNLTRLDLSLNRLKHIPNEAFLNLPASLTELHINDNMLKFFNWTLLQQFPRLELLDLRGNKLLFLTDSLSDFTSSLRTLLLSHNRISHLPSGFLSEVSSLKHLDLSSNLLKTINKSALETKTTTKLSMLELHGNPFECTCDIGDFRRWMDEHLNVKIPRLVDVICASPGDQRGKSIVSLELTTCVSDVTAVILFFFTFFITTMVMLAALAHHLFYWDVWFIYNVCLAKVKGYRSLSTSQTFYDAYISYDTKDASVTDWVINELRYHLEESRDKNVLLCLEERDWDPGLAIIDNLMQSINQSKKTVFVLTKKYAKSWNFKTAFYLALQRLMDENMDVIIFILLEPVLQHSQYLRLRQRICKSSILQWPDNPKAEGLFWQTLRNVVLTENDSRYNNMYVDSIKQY
human TLR9, sequence (Q9NR96 26-1032): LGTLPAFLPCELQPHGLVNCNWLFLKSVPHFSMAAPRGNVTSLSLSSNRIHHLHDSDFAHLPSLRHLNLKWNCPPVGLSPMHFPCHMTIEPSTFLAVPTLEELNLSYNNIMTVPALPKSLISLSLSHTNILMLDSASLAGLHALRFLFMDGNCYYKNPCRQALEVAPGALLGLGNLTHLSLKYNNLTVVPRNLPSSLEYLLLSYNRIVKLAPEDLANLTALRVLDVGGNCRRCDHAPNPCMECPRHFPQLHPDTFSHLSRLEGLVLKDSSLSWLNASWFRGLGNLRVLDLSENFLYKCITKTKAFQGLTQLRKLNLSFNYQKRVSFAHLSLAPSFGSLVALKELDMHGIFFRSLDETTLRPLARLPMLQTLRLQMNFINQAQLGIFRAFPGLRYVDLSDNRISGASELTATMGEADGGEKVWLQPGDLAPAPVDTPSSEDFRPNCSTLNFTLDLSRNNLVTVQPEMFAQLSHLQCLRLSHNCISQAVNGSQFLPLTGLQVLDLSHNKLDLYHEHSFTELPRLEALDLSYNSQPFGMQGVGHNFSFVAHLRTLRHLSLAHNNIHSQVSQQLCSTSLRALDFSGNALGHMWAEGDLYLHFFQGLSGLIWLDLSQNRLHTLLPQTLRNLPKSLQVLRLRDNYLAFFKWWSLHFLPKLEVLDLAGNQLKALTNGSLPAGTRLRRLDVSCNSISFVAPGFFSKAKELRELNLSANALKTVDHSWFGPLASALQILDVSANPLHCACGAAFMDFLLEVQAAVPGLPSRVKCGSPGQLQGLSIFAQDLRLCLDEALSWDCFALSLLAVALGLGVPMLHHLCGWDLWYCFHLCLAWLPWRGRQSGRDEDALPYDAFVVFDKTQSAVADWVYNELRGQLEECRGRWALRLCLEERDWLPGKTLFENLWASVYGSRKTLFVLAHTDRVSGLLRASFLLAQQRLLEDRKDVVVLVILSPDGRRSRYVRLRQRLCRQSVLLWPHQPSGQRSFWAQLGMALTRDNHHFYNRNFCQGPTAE
human TLR7, sequence (Q9NYK1 27-1049): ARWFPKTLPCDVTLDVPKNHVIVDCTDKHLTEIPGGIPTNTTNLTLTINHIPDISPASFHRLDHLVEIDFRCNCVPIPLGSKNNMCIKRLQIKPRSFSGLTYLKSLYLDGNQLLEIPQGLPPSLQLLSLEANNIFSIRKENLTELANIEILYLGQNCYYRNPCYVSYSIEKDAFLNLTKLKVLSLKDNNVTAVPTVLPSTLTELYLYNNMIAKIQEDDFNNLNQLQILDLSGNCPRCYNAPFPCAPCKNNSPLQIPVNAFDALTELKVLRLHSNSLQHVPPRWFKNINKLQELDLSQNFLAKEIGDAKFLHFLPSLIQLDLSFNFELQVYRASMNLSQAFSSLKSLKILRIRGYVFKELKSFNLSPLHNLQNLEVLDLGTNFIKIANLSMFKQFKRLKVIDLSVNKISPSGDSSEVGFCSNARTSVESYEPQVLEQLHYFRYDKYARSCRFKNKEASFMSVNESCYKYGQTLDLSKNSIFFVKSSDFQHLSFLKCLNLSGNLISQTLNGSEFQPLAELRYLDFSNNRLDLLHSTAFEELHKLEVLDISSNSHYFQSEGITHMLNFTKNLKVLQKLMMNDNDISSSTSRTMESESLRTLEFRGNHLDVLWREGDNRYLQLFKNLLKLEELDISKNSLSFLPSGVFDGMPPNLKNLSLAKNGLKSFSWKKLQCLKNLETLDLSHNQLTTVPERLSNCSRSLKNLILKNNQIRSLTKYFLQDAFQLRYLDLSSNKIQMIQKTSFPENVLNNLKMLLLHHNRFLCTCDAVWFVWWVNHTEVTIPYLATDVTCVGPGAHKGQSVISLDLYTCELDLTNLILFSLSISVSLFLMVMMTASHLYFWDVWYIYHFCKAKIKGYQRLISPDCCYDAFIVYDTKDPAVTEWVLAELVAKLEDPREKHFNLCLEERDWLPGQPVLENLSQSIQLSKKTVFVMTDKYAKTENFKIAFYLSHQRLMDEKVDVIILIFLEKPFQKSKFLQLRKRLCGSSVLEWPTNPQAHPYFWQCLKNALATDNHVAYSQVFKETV
Protocol for human TLR8: HEK-Blue™-cells (Invivogen) overexpressing human TLR7, TLR8 or TLR9 receptors were used for screening inhibitors of these receptors using an inducible SEAP (secreted embryonic alkaline phosphatase) reporter gene under the control of the IFN-β minimal promoter fused to five NF-κB and AP-1-binding sites. Briefly, cells are seeded into Greiner 384 well plates (15000 cells per well for TLR7, 20,000 for TLR8 and 25,000 for TLR9) and then treated with test compounds in DMSO to yield a final dose response concentration range of 0.05 nM-50 μM. After a 30 minute compound pre-treatment at room temperature, the cells are then stimulated with a TLR7 ligand (gardiquimod at a final concentration of 7.5 μM), TLR8 ligand (R848 at a final concentration of 15.9 μM) or TLR9 ligand (ODN2006 at a final concentration of 5 nM) to activate NF-κB and AP-1 which induce the production of SEAP. After a 22 hour incubation at 37° C., 500 CO2, SEAP levels are determined with the addition of HEK-Blue™ Detection reagent (Invivogen), a cell culture medium that allows for detection of SEAP, according to manufacturer's specifications.

For the compound `Cc1c(-c2[nH]c3cnc(N4CCN(CC(N)=O)C[C@H]4C)c(F)c3c2C(C)C)cn2ncnc2c1C` [Example 464], the pIC50 is 8.14 against human TLR7, 8.59 at human TLR8 (setting [1]) and 4.36 at human TLR9 (setting [2]).
Regarding `COc1cc(-c2[nH]c3cnc(N4CCN(C(C)C)C[C@H]4C)c(F)c3c2C(C)C)cn2ncnc12` [Example 443], the negative logarithm of the IC50 (pIC50) against human TLR7 was 8.40; at human TLR8 (setting [3]) it was 8.03; at human TLR9 (setting [4]), 5.18.
In the same order, the values of `Cc1cc(-c2[nH]c3cnc(C4CCC(N5CC6(COC6)C5)CC4)c(F)c3c2C(C)C)cn2ncnc12` (stereo not drawn) [Example 132] are 8.47, 8.30 and 5.67.
On to `COc1cc(-c2[nH]c3cnc(N4CCN(CCS(C)(=O)=O)CC4)cc3c2C(C)C)cn2ncnc12` [Example 290], for which the pIC50 against human TLR7 was 7.70; at human TLR8 (setting [3]), 8.15; at human TLR9 (setting [4]), < 4.30.
Turning to `COc1cc(-c2[nH]c3cnc(C4CCC(NCC(C)(C)C)CC4)cc3c2C(C)C)cn2ncnc12` (stereo not drawn) [Example 325], the pIC50 is 8.62 against human TLR7, 7.92 on human TLR8 (setting [3]) and 6.29 at human TLR9 (setting [4]).
In the same order, the values of `Cc1c(-c2[nH]c3cnc(N4CCN(C5CCOCC5)CC4)c(F)c3c2C(C)C)cn2ncnc2c1C` [Example 431] are 8.46, 9.49 and 5.09.
In the case of `CCN(C)C1CCN(c2ncc3[nH]c(-c4cc(C)c5ncnn5c4)c(C(C)C)c3c2F)CC1` [Example 69], the pIC50 against human TLR7 was 9.26; on human TLR8 (setting [3]) it was 9.26; at human TLR9 (setting [4]) it was 5.39.
Consider `COc1cc(-c2[nH]c3cnc(N4CCN(C(=O)CN(C)C)CC4)c(C)c3c2C(C)C)cn2ncnc12` [Example 154], for which the pIC50 was 8.40 on human TLR7, 8.36 on human TLR8 (setting [3]) and 5.91 on human TLR9 (setting [4]).
As for `CNC(=O)CN(C)C1CCN(c2ncc3[nH]c(-c4cc(OC)c5ncnn5c4)c(C(C)C)c3c2F)CC1` [Example 221], the pIC50 is 8.96 against human TLR7, 9.15 on human TLR8 (setting [1]) and 5.59 at human TLR9 (setting [2]).
In the case of `Cc1c(-c2[nH]c3cnc(N4CCN(C(=O)CN(C)C)CC4)c(F)c3c2C(C)C)cn2ncnc2c1C` [Example 422], the pIC50 at human TLR7 is 8.51; on human TLR8 (setting [3]), 8.70; at human TLR9 (setting [4]) it was 5.17.
Turning to `COc1cc(-c2[nH]c3cnc(N4CCC(N(C)CC(F)F)CC4)c(F)c3c2C(C)C)cn2ncnc12` [Example 189], the pIC50 against human TLR7 was 7.70; on human TLR8 (setting [3]), 7.80; at human TLR9 (setting [4]), 4.51.
`Cc1c(-c2[nH]c3cnc(C4CCC(NC5COC5)CC4)cc3c2C(C)C)cn2ncnc2c1C` (stereo not drawn) [Example 346]: the pIC50 was 8.48 at human TLR7, 7.85 at human TLR8 (setting [3]) and 6.12 on human TLR9 (setting [4]).
In the same order, the values of `COCCNC1CCC(c2cc3c(C(C)C)c(-c4cn5ncnc5c(C)c4C)[nH]c3cn2)CC1` (stereo not drawn) [Example 347] are 8.41, 7.52 and 6.10.
In the case of `CNC(=O)CN(C)C1CCC(c2ncc3[nH]c(-c4cc(OC)c5ncnn5c4)c(C(C)C)c3c2F)CC1` (stereo not drawn) [Example 131], the negative-log IC50 (pIC50) is 8.30 against human TLR7, 8.10 on human TLR8 (setting [3]) and 4.94 on human TLR9 (setting [4]).
As to `Cc1cc(-c2[nH]c3cnc(C4CCN(C(=O)CN(C)C)CC4)c(F)c3c2C(C)C)cn2ncnc12` [Example 65], the negative logarithm of the IC50 (pIC50) at human TLR7 was 8.66; on human TLR8 (setting [3]), 8.25; at human TLR9 (setting [4]), 5.48.
`COc1cc(-c2[nH]c3cnc(N4CCC(NC[C@@H](F)C(C)(C)O)CC4)c(C)c3c2C(C)C)cn2ncnc12` [Example 64]: the pIC50 on human TLR7 is 8.38; at human TLR8 (setting [3]), 8.82; on human TLR9 (setting [4]), 5.55.
Regarding `Cc1c(N2CCC(NCC(C)(C)C)CC2)ncc2[nH]c(-c3cc(C)c4ncnn4c3)c(C(C)C)c12` [Example 112], the negative-log IC50 (pIC50) against human TLR7 was 8.80; on human TLR8 (setting [3]) it was 8.64; on human TLR9 (setting [4]), 5.73.
In the same order, the values of `COc1cc(-c2[nH]c3cnc(N4CC5(C4)CN(C4CCC4)C5)c(F)c3c2C(C)C)cn2ncnc12` [Example 381] are 8.00, 7.96 and 5.59.
Take `Cc1cc(-c2[nH]c3cnc(C4CCN(C5COC5)CC4)c(F)c3c2C(C)C)cn2ncnc12` [Example 182]: the pIC50 at human TLR7 is 8.42; on human TLR8 (setting [3]), 7.96; at human TLR9 (setting [4]), 4.73.
Turning to `Cc1c(-c2[nH]c3cnc(N4CC5(CN(C(=O)CN6CCOCC6)C5)C4)c(F)c3c2C(C)C)cn2ncnc2c1C` [Example 399, 1-(6-(2-(7,8-dimethyl-[1,2,4]triazolo[1,5-a]pyridin-6-yl)-4-fluoro-3-isopropyl-1H-pyrrolo[2,3-c]pyridin-5-yl)-2,6-diazaspiro[3.3]heptan-2-yl)-2-morpholinoethan-1-one], the pIC50 was 6.39 on human TLR7, 8.39 at human TLR8 (setting [3]) and < 4.30 against human TLR9.
As for `COc1cc(-c2[nH]c3cnc(C4CCC(N5CCC5)CC4)cc3c2C(C)C)cn2ncnc12` (stereo not drawn) [Example 324], the values for the pIC50 at human TLR7, at human TLR8 (setting [3]) and at human TLR9 (setting [4]) were 8.52, 7.70 and 6.55, respectively.
As for `COc1cc(-c2[nH]c3cnc(C4CCC(N(C)CC(N)=O)CC4)c(F)c3c2C(C)C)cn2ncnc12` (stereo not drawn) [Example 78], the results for the pIC50 on human TLR7, on human TLR8 (setting [3]) and on human TLR9 (setting [4]) were 8.37, 7.96 and 5.06, respectively.
With `Cc1c(-c2[nH]c3cnc(N4CCN(C(=O)CN5CCOCC5)C[C@H]4C)c(F)c3c2C(C)C)cn2ncnc2c1C` [Example 471], the pIC50 on human TLR7 is 7.57; on human TLR8 (setting [1]), 8.57; at human TLR9 (setting [2]) it was < 4.30.
As for `Cc1c(-c2[nH]c3cnc(N4CCC(NCC(C)(C)C)CC4)c(F)c3c2C(C)C)cn2ncnc2c1C` [Example 167], the pIC50 at human TLR7 was 8.59; on human TLR8 (setting [3]), 9.31; at human TLR9 (setting [4]), 5.36.
In the same order, the values of `COc1cc(-c2[nH]c3cnc(C4CCC(NC[C@@H](F)C(C)(C)O)CC4)c(C)c3c2C(C)C)cn2ncnc12` (stereo partly drawn) [Example 89] are 8.19, 8.31 and 6.36.
In the same order, the values of `COc1cc(-c2[nH]c3cnc(C4CCN(C(=O)CN(C)C)CC4)c(F)c3c2C(C)C)cn2ncnc12` [Example 37] are 8.48, 8.36 and 6.39.
For `COc1cc(-c2[nH]c3cnc(N4CCC(N(C)C)CC4)c(F)c3c2C(C)C)cn2ncnc12` [Example 218], the negative logarithm of the IC50 (pIC50) on human TLR7 is 9.09; at human TLR8 (setting [1]) it was 9.22; at human TLR9 (setting [2]), 5.32.
On to `CCN(C)C1CCC(c2cc3c(C(C)C)c(-c4cc(OC)c5ncnn5c4)[nH]c3cn2)CC1` (stereo not drawn) [Example 316], for which the values for the pIC50 against human TLR7, at human TLR8 (setting [3]) and at human TLR9 (setting [4]) were 8.02, 7.48 and 7.10, respectively.
With `COCCN1CCN(c2ncc3[nH]c(-c4cn5ncnc5c(C)c4C)c(C(C)C)c3c2F)[C@H](C)C1` [Example 472], the pIC50 was 8.28 on human TLR7, 9.04 on human TLR8 (setting [1]) and 4.33 at human TLR9 (setting [2]).
In the same order, the values of `COc1cc(-c2[nH]c3cnc(N4CCN(C5CCOCC5)C[C@H]4C)c(F)c3c2C(C)C)cn2ncnc12` [Example 452] are 8.32, 7.96 and 4.90.
With `Cc1c(N2CCC(N3CCN(S(C)(=O)=O)CC3)CC2)ncc2[nH]c(-c3cc(C)c4ncnn4c3)c(C(C)C)c12` [Example 285], the pIC50 on human TLR7 is 8.89; at human TLR8 (setting [3]), 8.80; on human TLR9 (setting [4]) it was 5.73.
In the same order, the values of `Cc1c(-c2[nH]c3cnc(C4CCC(NCC(F)F)CC4)cc3c2C(C)C)cn2ncnc2c1C` (stereo not drawn) [Example 350] are 8.85, 8.33 and 5.97.
On to `CCN(C)C1CCN(c2ncc3[nH]c(-c4cc(OC)c5ncnn5c4)c(C(C)C)c3c2F)CC1` [Example 102], for which the pIC50 against human TLR7 was 9.47; at human TLR8 (setting [3]), 9.62; on human TLR9 (setting [4]), 5.55.
For `Cc1c(-c2[nH]c3cnc(C4CCC(NC5COC5)CC4)c(C)c3c2C(C)C)cn2ncnc2c1C` (stereo not drawn) [Example 121], the negative-log IC50 (pIC50) against human TLR7 is 8.57; on human TLR8 (setting [3]), 8.23; on human TLR9 (setting [4]) it was 6.12.
Turning to `Cc1c(-c2[nH]c3cnc(N4CCN(C(C)C)CC4)c(F)c3c2C(C)C)cn2ncnc2c1C` [Example 412], the values for the pIC50 against human TLR7, on human TLR8 (setting [3]) and on human TLR9 (setting [4]) were 8.17, 9.54 and 5.24, respectively.
In the same order, the values of `Cc1c(-c2[nH]c3cnc(C4CCC(NC(C)C)CC4)c(F)c3c2C(C)C)cn2ncnc2c1C` (stereo not drawn) [Example 136] are 9.39, 9.49 and 6.21.
In the same order, the values of `CNC1CCN(c2ncc3[nH]c(-c4cc(C)c5ncnn5c4)c(C(C)C)c3c2F)CC1` [Example 71] are 9.39, 9.19 and 5.44.
In the same order, the values of `CNC(=O)CN(C)C1CCN(c2ncc3[nH]c(-c4cc(C)c5ncnn5c4)c(C(C)C)c3c2F)CC1` [Example 259] are 8.68, 8.59 and 4.78.
Regarding `Cc1c(N2CCC(NC3CCOCC3)CC2)ncc2[nH]c(-c3cc(C)c4ncnn4c3)c(C(C)C)c12` [Example 265], the negative logarithm of the IC50 (pIC50) at human TLR7 was 9.44; at human TLR8 (setting [3]), 9.38; at human TLR9 (setting [4]), 5.99.
In the same order, the values of `COc1cc(-c2[nH]c3cnc(N4CCN(C5COC5)CC4)c(F)c3c2C(C)C)cn2ncnc12` [Example 382] are 8.35, 7.74 and < 4.30.

Source of the values: patent US11912703B2, “6-azaindole compounds” (BRISTOL-MYERS SQUIBB COMPANY, priority 2017, dated 2024).
